Measured values published in patent US8992982B2, “Formulation of indomethacin” (Iceutica Pty Ltd., priority 2009, dated 2015).

Test system: pain after surgical removal of impacted third molars
Experiment: Phase 2 dental pain study: pain relief, 5-point categorical scale (TOTPAR, pain relief score, peak pain relief, time to peak pain relief)
Assay type: in vivo, human
Conditions: for Pain relief score A Little (1), % / Pain relief score None (0), % / Pain relief score Some (2), % / Pain relief score A Lot (3), % / Pain relief score Complete (4), %: 400 mg; for TOTPAR-8, LS mean difference vs placebo: treatment - placebo
Procedure: This was a phase-2, multicenter, randomized, double-blind, single-dose, parallel-group, active- and placebo-controlled study to evaluate the efficacy and safety of Indomethacin Nanoformulation Capsules (20 mg and 40 mg) in subjects with postoperative dental pain.
On Day 1, eligible subjects underwent extraction of 2 or more third molars, at least 1 of which had to be a fully or partially bone-impacted mandibular molar. If only 2 molars were removed, then they had to be ipsilateral.
Subjects assessed their baseline pain intensity (VAS) before receiving study drug (predose, Time 0) and their pain intensity (VAS) and pain relief (5-point categorical scale) at 15, 30, and 45 minutes and 1, 1.5, 2, 3, 4, 5, 6, 7, and 8 hours after Time 0 and immediately before the first dose of rescue medication. The 2-stopwatch method was used to record the time to perceptible and time to meaningful pain relief, respectively. Acetaminophen (1000 mg) was permitted as the initial rescue medication. Subjects were encouraged to wait at least 60 minutes after receiving study drug before taking rescue medication. […] Other restrictions included the following: no alcohol use from 24 hours before surgery until discharge on Day 1; nothing by mouth (NPO) from midnight before surgery until 1 hour after surgery; clear liquids only from 1 hour after surgery until 1 hour after dosing; and advancement of diet 1 hour after dosing according to standard practice.
The primary efficacy endpoint was the sum of total pain relief (TOTPAR) over 0 to 8 hours (TOTPAR-8) after Time 0. The TOTPAR was calculated using the pain relief score (5-point categorical scale) at each follow-up time point weighted (multiplied) using the amount of time since the prior assessment.
The secondary efficacy endpoints were as follows: • TOTPAR over 0 to 4 hours (TOTPAR-4) after Time 0 • Visual Analogue Scale (VAS) pain intensity difference (VASPID) at each scheduled time point after Time 0 • Time to onset of analgesia (measured as time to perceptible pain relief confirmed by meaningful pain relief) • VAS pain intensity score at each scheduled time point • VAS summed pain intensity difference (VASSPID) over 0 to 4 hours (VASSPID-4) and over 0 to 8 hours (VASSPID-8) after Time 0 • Pain relief score at each scheduled time point after Time 0 • Peak pain relief • Time to peak pain relief • Time to first perceptible pain relief • Time to meaningful pain relief • Proportion of subjects using rescue medication • Time to first use of rescue medication (duration of analgesia) • Patient's global evaluation of study drug Safety:
The null hypothesis was that TOTPAR over 0 to 8 hours after Time 0 (TOTPAR-8) for placebo would be equal to TOTPAR-8 for 40-mg Indomethacin Nanoformulation Capsules. The null hypothesis was analyzed using analysis of covariance (ANCOVA) models, which included treatment effect and significant covariates. The effect of potential covariates, such as sex, baseline pain intensity, and surgical trauma rating, were assessed using appropriate ANCOVA models. The analysis was based on a 2-sided test at the significance level of 0.05.
The least squares (LS) mean and 95% confidence interval (CI) for each treatment regimen, the mean (LS mean) difference between the 2 treatments, and the associated P value and 95% CI for the mean difference were computed from the ANCOVA model. This analysis utilized primarily the ITT population, and sensitivity analysis utilized the PP population.
Other comparisons between the treatment regimens, including 20-mg Indomethacin Nanoformulation Capsules versus placebo and 400-mg celecoxib capsules versus placebo, were considered secondary but also utilized the ITT population. The primary efficacy variable was also summarized by site, but no P values or statistical tests for site were computed.
Each efficacy endpoint was summarized descriptively by treatment group. […]

What does the source list for `Cc1ccc(-c2cc(C(F)(F)F)nn2-c2ccc(S(N)(=O)=O)cc2)cc1` [Celecoxib]?
Pain relief score A Little (1), % (15 minutes, ITT): (21.6) %; Pain relief score None (0), % (15 minutes, ITT): (74.5) %; Pain relief score Some (2), % (15 minutes, ITT): (3.9) %; Pain relief score A Little (1), % (30 minutes, ITT): (41.2) %; Pain relief score A Lot (3), % (30 minutes, ITT): (3.9) %; Pain relief score None (0), % (30 minutes, ITT): (51.0) %; Pain relief score Some (2), % (30 minutes, ITT): (3.9) %; Pain relief score A Little (1), % (45 minutes, ITT): (37.3) %; Pain relief score A Lot (3), % (45 minutes, ITT): (13.7) %; Pain relief score Complete (4), % (45 minutes, ITT): (2.0) %; Pain relief score None (0), % (45 minutes, ITT): (27.5) %; Pain relief score Some (2), % (45 minutes, ITT): (19.6) %; Pain relief score A Little (1), % (1 hour, ITT): (31.4) %; Pain relief score A Lot (3), % (1 hour, ITT): 25.5%; Pain relief score Complete (4), % (1 hour, ITT): (3.9) %; Pain relief score None (0), % (1 hour, ITT): (15.7) %; Pain relief score Some (2), % (1 hour, ITT): (23.5) %; Pain relief score A Little (1), % (2 hours, ITT): (13.7) %; Pain relief score A Lot (3), % (2 hours, ITT): (49.0) %; Pain relief score Complete (4), % (2 hours, ITT): (5.9) %; Pain relief score None (0), % (2 hours, ITT): (17.6) %; Pain relief score Some (2), % (2 hours, ITT): (13.7) %; Pain relief score A Little (1), % (3 hours, ITT): (5.9) %; Pain relief score A Lot (3), % (3 hours, ITT): (51.0) %; Pain relief score Complete (4), % (3 hours, ITT): (5.9) %; Pain relief score None (0), % (3 hours, ITT): (21.6) %; Pain relief score Some (2), % (3 hours, ITT): (15.7) %; Pain relief score A Little (1), % (4 hours, ITT): (7.8) %; Pain relief score A Lot (3), % (4 hours, ITT): (49.0) %; Pain relief score Complete (4), % (4 hours, ITT): (9.8) %; Pain relief score None (0), % (4 hours, ITT): (27.5) %; Pain relief score Some (2), % (4 hours, ITT): (5.9) %; Pain relief score A Little (1), % (5 hours, ITT): (3.9) %; Pain relief score A Lot (3), % (5 hours, ITT): (43.1) %; Pain relief score Complete (4), % (5 hours, ITT): (11.8) %; Pain relief score None (0), % (5 hours, ITT): (31.4) %; Pain relief score Some (2), % (5 hours, ITT): (9.8) %; Pain relief score A Little (1), % (6 hours, ITT): (2.0) %; Pain relief score A Lot (3), % (6 hours, ITT): (37.3) %; Pain relief score Complete (4), % (6 hours, ITT): (17.6) %; Pain relief score None (0), % (6 hours, ITT): (37.3) %; Pain relief score Some (2), % (6 hours, ITT): (5.9) %; Pain relief score A Lot (3), % (7 hours, ITT): (43.1) %; Pain relief score Complete (4), % (7 hours, ITT): (13.7) %; Pain relief score None (0), % (7 hours, ITT): (41.2) %; Pain relief score Some (2), % (7 hours, ITT): (2.0) %; Pain relief score A Lot (3), % (8 hours, ITT): (41.2) %; Pain relief score Complete (4), % (8 hours, ITT): (13.7) %; Pain relief score None (0), % (8 hours, ITT): (41.2) %; Pain relief score Some (2), % (8 hours, ITT): (3.9) %; Time to peak pain relief, Hazard ratio (Cox proportional hazards model, vs placebo, ITT): 1.8; Peak pain relief: A Little (1) (ITT): (11.8) %; Peak pain relief: A Lot (3) (ITT): (47.1) %; Peak pain relief: Complete (4) (ITT): (21.6) %; Peak pain relief: None (0) (ITT): (7.8) %; Peak pain relief: Some (2) (ITT): (11.8) %; Time to peak pain relief: subjects analyzed (ITT): (58.8) %; Time to peak pain relief: subjects censored (ITT): (41.2) %; TOTPAR-4, Mean (ITT population): 7.152; TOTPAR-4, Median (ITT population): 8.750; Time to peak pain relief, Mean (Kaplan-Meier estimate, ITT): 3.3 h; Time to peak pain relief, Q25 (Kaplan-Meier estimate, ITT): 1.50 h; Time to peak pain relief, Q50 (Kaplan-Meier estimate, ITT): 3.00 h; Time to peak pain relief, Q75 (Kaplan-Meier estimate, ITT): 5.00 h; TOTPAR-8, LS mean (Model 1 (primary): ANCOVA, baseline pain intensity as only covariate, ITT): 14.822; TOTPAR-8, LS mean difference vs placebo (Model 1 (primary), ITT): 11.803; TOTPAR-8, LS mean (Model 2: baseline pain intensity, gender and surgical trauma rating as covariates, ITT): 14.797; TOTPAR-8, LS mean difference vs placebo (Model 2, ITT): 11.864; TOTPAR-8, Median (Overall, ITT population): 19.250; TOTPAR-8, Mean (Overall, ITT population, single oral dose (celecoxib 400 mg)): 14.858; TOTPAR-8, Mean (Site 50048, ITT population): 15.524; TOTPAR-8, Median (Site 50048, ITT population): 20.500; TOTPAR-8, Mean (Site 50053, ITT population): 14.021; TOTPAR-8, Median (Site 50053, ITT population): 14.625; TOTPAR-8, Mean (Site 50054, ITT population): 14.639; TOTPAR-8, Median (Site 50054, ITT population): 20.750; Pain relief score A Little (1), % ([…], ITT): (17.6) %; Pain relief score A Lot (3), % ([…], ITT): (31.4) %; Pain relief score Complete (4), % ([…], ITT): (3.9) %; Pain relief score None (0), % ([…], ITT): (17.6) %; Pain relief score Some (2), % ([…], ITT): (29.4) %; Time point from which pain relief scores were statistically significantly more favorable than placebo (onward after Time 0): ≥ 45 min
